This is an account of results in ChEMBL document CHEMBL1201862, “PubChem BioAssay data set” (2004).

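Five concentrations, 48 hours, 96-well plates. GI50 marks 50% less growth.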 The source made the active and inactive calls. Rule as the data show it: active = GI50 up to about 1.1 µM and inactive = higher.

Some test systems named below: MDA-N; SR; SW-620; 786-0; A549; MOLT-4; NCI/ADR-RES; EKVX; SN12C; BT-549; LOX IMVI; SK-OV-3; TK-10; SK-MEL-28; MCF7; DU-145; SF-295; SF-268; CCRF-CEM; HOP-62.
Assay in all cases: NCI tumour cell line growth inhibition, 48 h

Turning to `C=CCc1cc(-c2cc(CC=C)c(O)c(CN(CCCl)CCCl)c2)cc(CN(CCCl)CCCl)c1O`, the GI50 in the assay on MDA-N is 15.2 µM (inactive); in the assay with SR, 0.627 µM (active); in the assay with SW-620, 12.3 µM (inactive); with 786-0, 7.94 µM (inactive); in the assay with A549, 13.7 µM (inactive); with MOLT-4, 2.52 µM (inactive). Also, the GI50 in the assay on NCI/ADR-RES was 18.9 µM (inactive); in the assay with EKVX it was 16 µM (inactive); with SN12C, 9.68 µM (inactive); in the assay on BT-549, 14.3 µM (inactive); in the assay with LOX IMVI, 10.3 µM (inactive); in the assay on SK-OV-3, 18.9 µM (inactive). The GI50 in the assay with TK-10 is 19.3 µM (inactive); with SK-MEL-28 it was 17.8 µM (inactive); with MCF7 it was 5.77 µM (inactive); in the assay on DU-145 it was 15.7 µM (inactive); in the assay with SF-295, 13 µM (inactive); in the assay on SF-268, 12.7 µM (inactive). The GI50 in the assay on CCRF-CEM was 3.03 µM (inactive); with HOP-62, 14 µM (inactive).
